In one data set the target is T1, DarB (Bacillus subtilis, UniProt O31698).
T1 sequence (O31698 1-147): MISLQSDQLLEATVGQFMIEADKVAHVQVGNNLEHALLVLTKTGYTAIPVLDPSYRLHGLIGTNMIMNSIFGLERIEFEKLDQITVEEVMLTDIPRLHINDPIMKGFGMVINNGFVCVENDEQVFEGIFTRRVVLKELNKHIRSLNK
Put plainly: ITC and crystal structure. It counts as binding.

The data set “crystal structure” concerns the molecule itself. Kind of data set: crystal structure.

The molecule `Nc1ncnc2c1ncn2[C@@H]1O[C@H](COP(=O)(O)O)[C@@H](O)[C@H]1O` [AMP] gave an equilibrium dissociation constant (Kd) at DarB of 91.1 µM. This lies in the double-digit micromolar range.

B1: DarB (c-di-AMP receptor protein, CBS domain protein) of Bacillus subtilis, wild type (natural protein)
chain: T1 sequence (O31698 1-147)
On to B1, for which the “stoichiometry N” value in “crystal structure” worked out at 2.

As usually defined, the Kd is the equilibrium constant for the complex coming apart. Low values mean a tighter complex, high ones a looser complex. A word on the stoichiometry N: it is the number of molecules, sites or subunits per partner or assembly.

The values above are taken from paper PMC9293649 (The Journal of Biological Chemistry, 2022).
